According to paper PMC7246003 (Medicinal Chemistry Research, 2020):
Where two headings read alike, the source gives them in different places.

Assays:
[1] = biological target: T1, IAV RdRp from A/PR/8/34/H1N1 strain (Influenza A virus, UniProt P03428+P03431); settings: inhibiting the transcriptional activity of viral polymerase; ref Pagadala [2019]; cited from earlier work
[2] = biological target: T1, IAV RdRp from A/PR/8/34/H1N1 strain; format: biochemical, influenza virus A/PR/8/34/H1N1

Compound | IC50 [1] | IC25 [2] | IC50 [2]
Nc1nc2c(ncn2[C@@H]2O[C@H](COP(=O)(O)OP(=O)(O)OP(=O)(O)O)[C@@H](O)[C@H]2F)c(=O)[nH]1 [Compound 12, 2′-deoxy-2′-fluoroguanosine 5′-triphosphate] | 1.12 µM | – | –
5′-Dimethoxytrityl-2′-tosyl-N2-isobutyryl-guanosine [Compound 7] | – | 0.25 µM | 0.68 µM
Cc1cn([C@H]2C[C@H](N=[N+]=[N-])[C@@H](CO[P@](=O)(O)O[P@](=O)(O)OP(=O)(O)O)O2)c(=O)[nH]c1=O [3′-azido-3′-deoxy-thymidine-5′-triphosphate] | 1.12 µM | – | –
